These are literature values, as cited in patent US20220226508A1, “METHODS AND COMPOSITIONS FOR TREATING EPILEPSY” (THE REGENTS OF THE UNIVERSITY OF CALIFORNIA, priority 2019, published 2022).

For one series, the target named is 5-HT7 (Homo sapiens, UniProt P34969). The following applies: read-out: binding affinity (Ki) 5-HT7; cited from earlier work.
A further series concerns the target 5-HT6 (Homo sapiens, UniProt P50406). The following applies: read-out: binding affinity (Ki) 5-HT6; cited from earlier work.
Another series addresses T1, Adrenergic Alpha1B (Homo sapiens, UniProt P35368).
T1 sequence (P35368 1-520): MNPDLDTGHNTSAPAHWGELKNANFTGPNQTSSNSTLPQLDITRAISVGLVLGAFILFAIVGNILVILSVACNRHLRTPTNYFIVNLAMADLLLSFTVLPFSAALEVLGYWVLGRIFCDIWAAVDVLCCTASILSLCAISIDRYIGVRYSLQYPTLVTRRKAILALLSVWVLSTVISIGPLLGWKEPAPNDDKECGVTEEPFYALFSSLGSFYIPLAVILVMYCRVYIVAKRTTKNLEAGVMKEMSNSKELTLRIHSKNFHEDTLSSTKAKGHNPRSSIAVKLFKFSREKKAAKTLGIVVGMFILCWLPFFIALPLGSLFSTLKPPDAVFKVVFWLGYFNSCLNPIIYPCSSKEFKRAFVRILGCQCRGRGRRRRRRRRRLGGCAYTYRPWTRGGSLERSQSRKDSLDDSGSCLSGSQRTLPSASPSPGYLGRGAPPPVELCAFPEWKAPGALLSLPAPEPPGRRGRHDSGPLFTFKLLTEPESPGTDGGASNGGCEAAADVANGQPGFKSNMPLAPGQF
To be noted: read-out: binding affinity (Ki) Adrenergic Alpha1B; cited from earlier work.

The target of a further series is 5-HT1D (Homo sapiens, UniProt P28221). The following applies: read-out: binding affinity (Ki) 5-HT1D; cited from earlier work.
5-HT1D, sequence (P28221 whole entry, species assumed): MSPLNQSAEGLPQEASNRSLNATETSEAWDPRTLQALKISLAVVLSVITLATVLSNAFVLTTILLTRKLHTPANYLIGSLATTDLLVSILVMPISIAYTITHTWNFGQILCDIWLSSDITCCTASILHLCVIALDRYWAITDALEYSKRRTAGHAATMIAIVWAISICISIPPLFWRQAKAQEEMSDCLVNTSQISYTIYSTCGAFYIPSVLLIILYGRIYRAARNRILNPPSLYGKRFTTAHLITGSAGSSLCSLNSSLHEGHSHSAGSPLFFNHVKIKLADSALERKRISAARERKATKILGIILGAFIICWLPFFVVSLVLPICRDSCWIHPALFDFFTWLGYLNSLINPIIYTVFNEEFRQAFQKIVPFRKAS
In another series the target is 5-HT1B (Homo sapiens, UniProt P28222). To be noted: read-out: binding affinity (Ki) 5-HT1B; cited from earlier work.
5-HT1B, sequence (P28222 whole entry, species assumed): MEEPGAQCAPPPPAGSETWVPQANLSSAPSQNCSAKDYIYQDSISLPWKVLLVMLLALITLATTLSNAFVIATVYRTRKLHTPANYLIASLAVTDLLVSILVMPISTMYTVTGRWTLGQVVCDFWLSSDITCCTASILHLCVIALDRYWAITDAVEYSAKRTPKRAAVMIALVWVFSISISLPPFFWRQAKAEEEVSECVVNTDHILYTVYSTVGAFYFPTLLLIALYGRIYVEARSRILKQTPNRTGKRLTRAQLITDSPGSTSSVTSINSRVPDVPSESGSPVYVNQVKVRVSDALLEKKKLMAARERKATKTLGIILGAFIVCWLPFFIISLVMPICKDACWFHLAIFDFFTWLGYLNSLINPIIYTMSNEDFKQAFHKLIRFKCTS

5-HT7, sequence (P34969 whole entry, species assumed): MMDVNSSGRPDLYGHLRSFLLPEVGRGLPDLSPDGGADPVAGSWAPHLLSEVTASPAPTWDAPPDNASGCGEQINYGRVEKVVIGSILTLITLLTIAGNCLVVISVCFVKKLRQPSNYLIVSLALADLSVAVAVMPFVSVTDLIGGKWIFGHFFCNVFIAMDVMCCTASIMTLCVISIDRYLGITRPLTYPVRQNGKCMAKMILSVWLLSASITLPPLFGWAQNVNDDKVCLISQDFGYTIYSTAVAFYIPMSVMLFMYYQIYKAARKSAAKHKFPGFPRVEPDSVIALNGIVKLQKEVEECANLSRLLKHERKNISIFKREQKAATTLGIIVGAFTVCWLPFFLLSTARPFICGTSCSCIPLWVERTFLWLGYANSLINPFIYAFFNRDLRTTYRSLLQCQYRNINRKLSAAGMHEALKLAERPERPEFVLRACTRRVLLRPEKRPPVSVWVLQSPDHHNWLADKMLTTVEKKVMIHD
5-HT6, sequence (P50406 whole entry, species assumed): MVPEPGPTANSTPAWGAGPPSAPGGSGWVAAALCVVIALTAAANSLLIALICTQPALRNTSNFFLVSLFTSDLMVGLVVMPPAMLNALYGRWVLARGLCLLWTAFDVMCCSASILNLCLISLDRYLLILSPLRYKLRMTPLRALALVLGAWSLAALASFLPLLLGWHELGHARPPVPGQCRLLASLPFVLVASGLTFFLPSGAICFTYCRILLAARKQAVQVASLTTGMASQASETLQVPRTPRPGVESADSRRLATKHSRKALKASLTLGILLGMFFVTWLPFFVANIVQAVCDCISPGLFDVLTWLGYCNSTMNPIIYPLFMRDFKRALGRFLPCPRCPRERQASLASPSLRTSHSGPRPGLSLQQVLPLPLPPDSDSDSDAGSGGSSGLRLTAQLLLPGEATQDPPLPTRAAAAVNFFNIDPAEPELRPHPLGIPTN

Usually Ki stands for a dissociation constant, usually derived from enzyme kinetics or from competition with a known ligand. For `CCNC(C)Cc1cccc(C(F)(F)F)c1` (centres unmarked) [FEN], the Ki at 5-HT7 is 7310 nM; on 5-HT6, 9080 nM; at Adrenergic Alpha1B, 142 nM; on 5-HT1D, 1260 nM; at 5-HT1B, 1840 nM.
